Measurements as given in patent US20260174721A1, “AGENT FOR RESTORING METAL HOMEOSTASIS” (Oxford Antibiotic Group GmbH, priority 2022, published 2026).

Columns and labels:
[1] = system: metallothioneins; details: C. elegans nematode assay; cited from earlier work
[2] = system: mouse test model; details: Parkinson's disease; cited from earlier work
[3] = system: transgenic C. elegans strain CL2659; test: β-amyloid test system: delay of paralysis in transgenic C. elegans strain CL2659 (Alzheimer testing); format: in vivo, Caenorhabditis elegans; details: CL2659 stage L3 larvae, 48 hours, tested at 1 mg/ml, 100 μg/ml, 10 μg/ml, — = no effect even at 1 mg/ml; for minimal effective concentration: Caenorhabditis elegans, read-out: Alzheimer: concentration range in which a delay in paralysis was observed
Description: For this purpose, stage L3 worm larvae were used at a density of 10-20 worms per well. The expression of β-amyloid in the muscle cells was induced by increasing the temperature, and the associated paralysis was recorded at regular intervals until the end of the test after 48 hours.
(§1) For this purpose, the above substances were tested at concentrations of 1 mg/ml, 100 μg/ml, and 10 μg/ml in comparison with quercetin as a […] control.

[4] = system: transgenic C. elegans strain NL5901; test: α-synuclein test system: reduction of α-synuclein-GFP expression in transgenic C. elegans strain NL5901 (Parkinson testing); format: in vivo, Caenorhabditis elegans; details: NL5901, GFP readout 24 to 48 hours, tested at 1 mg/ml, 100 μg/ml, 10 μg/ml, — = no effect even at 1 mg/ml; for minimal effective concentration: Caenorhabditis elegans, read-out: Parkinson: concentration range in which a reduction in α-synuclein expression was detectable
Description: (§2) The same substances as above were tested in a 96-well procedure in the initially mentioned screening assay using the nematode Caenorhabditis elegans (Pretsch et al., see above) in a standardized α-synuclein test system using the transgenic C. elegans strain NL5901 for their potential suitability as an agent for treating Parkinson's disease. This worm strain expresses human α-synuclein bound to green fluorescent protein (GFP) in all muscle cells. GFP labeling allows a direct detection of expressed protein levels using a multiplate reader for 24 to 48 hours.
(§3) For this purpose, the substances were again tested at concentrations of 1 mg/ml, 100 μg/ml, and 10 μg/ml, but this time in comparison to the initially mentioned Parkinson therapeutic agent levodopa as a control.

[5] = system: Caenorhabditis elegans; test: C. elegans nematode assay, overall rating over the Alzheimer and Parkinson tests; format: in vivo; details: for minimal effective concentration: Caenorhabditis elegans, read-out: Score
Description: The substances (1) to (41) and (101) to (108), prepared in the above synthesis examples or purchased, were tested for their potential suitability as an agent for treating Alzheimer's disease in a 96-well procedure in the initially mentioned screening assay using the nematode Caenorhabditis elegans (Pretsch et al., see above) in a standardized β-amyloid test system using the transgenic C. elegans strain CL2659. For this purpose, stage L3 worm larvae were used at a density of 10-20 worms per well. The expression of β-amyloid in the muscle cells was induced by increasing the temperature, and the associated paralysis was recorded at regular intervals until the end of the test after 48 hours.
as §1, §2, §3

[6] = rating from the effective concentration in both tests

Row | Structure (SMILES) | minimal effective concentration [3] [µg/mL] | minimal effective concentration [4] [µg/mL] | minimal effective concentration [5, 6] [µg/mL] | other results
1 | Oc1c(I)cc(Cl)c2cccnc12 [clioquinol, 5-chloro-7-iodoquinolin-8-ol] |  |  |  | body's own biosynthesis of metallothioneins [1]: prolongation of the body's own biosynthesis of metallothioneins
2 | CC(C)(S)[C@@H](N)C(=O)O [D-penicillamine, 2-amino-3-mercapto-3-methyl butanoic acid] |  |  |  | neuroprotective effect / neurotoxicity [2]: did not show any neuroprotective effect
3 | CCN(CC)C(=S)S [diethyl dithiocarbamate, diethyldithiocarbamate] |  |  |  | neuroprotective effect / neurotoxicity [2]: higher neurotoxicity
4 | O=C(CC(=O)OC12CC3CC(CC(C3)C1)C2)NCCCN1CCOCC1 [(28), malonic acid adamantan-1-yl ester N-(3-morpholinopropyl)amide] | > 10 | > 10 | 10 to 100 | 
5 | NCCCNC(=O)CC(=O)N1CCC2CCCCC2C1 (centres unmarked) [(25), N-(3-aminopropyl)-N′-decahydroisoquinoline malonic acid diamide] | > 10 | > 10 | 10 to 100 | 
6 | COc1ccccc1N1CCN(C(=O)CC(=O)NC23CC4CC(C)(CC(C)(C4)C2)C3)CC1 [(38), N-(3,5-dimethyladamantan-1-yl)-N′-4-(2-methoxyphenyl)piperazine malonic acid diamide] |  |  |  | Alzheimer: concentration range in which a delay in paralysis was observed [3]: >100 µg/mL; Parkinson: concentration range in which a reduction in α-synuclein expression was detectable [4]: >100 µg/mL; Score [5, 6]: ++ (a compound that is already effective at a concentration >10 μg/ml and therefore rated “++”)
7 | CC12CC3CC(C)(C1)CC(NC(=O)CC(=O)O)(C3)C2 [(32), malonic acid N-(3,5-dimethyl)adamantan-1-yl amide] | > 10 | > 10 | 10 to 100 | 
8 | O=C(O)CC(=O)OC12CC3CC(CC(C3)C1)C2 [(10), malonic acid adamantan-1-yl ester N-(3-aminopropyl)amide] | > 10 | > 10 | 10 to 100 | 
9 | NCCCC(=O)N1CCN(C(=O)CC(=O)OC23CC4CC(CC(C4)C2)C3)CC1 [(13), malonic acid adamantan-1-yl ester 4-(4-aminobutyryl)piperazine amide] | > 10 | > 10 | 10 to 100 | 
10 | COC(=O)CC(=O)OC [(4), malonic acid dimethyl ester] | > 10 | > 10 | 10 to 100 | 
11 | Cc1cc(O)c2c(c1)C(=O)c1cc(O)cc(O)c1C2=O [emodin, 1,3,8-trihydroxy-6-methylanthracene-9,10-dione] |  |  |  | body's own biosynthesis of metallothioneins [1]: prolongation of the body's own biosynthesis of metallothioneins
12 | NC1CCN(C(=O)CC(=O)OC23CC4CC(CC(C4)C2)C3)CC1 [(14), malonic acid adamantan-1-yl ester 4-aminopiperidine amide] | > 10 | > 10 | 10 to 100 | 
13 | CC12CC3CC(C)(C1)CC(NC(=O)CC(=O)NCCCN1CCOCC1)(C3)C2 [(34), N-(3,5-dimethyladamantan-1-yl)-N′-(3-morpholinopropyl)malonic acid diamide] | > 10 | > 10 | 10 to 100 | 
14 | CC12CC3CC(C)(C1)CC(NC(=O)CC(=O)N1CCN(CC(=O)N4CCOCC4)CC1)(C3)C2 [(41), N-(3,5-dimethyladamantan-1-yl)-N′-4-(2-morpholino-2-oxoethyl)piperazine malonic acid diamide] | > 10 | > 10 | 10 to 100 | concentration from which the compound was effective ([5]; both tests): > 10 µg/mL
15 | NCCCNC(=O)CC(=O)O [(7), N-(3-aminopropyl)malonic acid amide] | > 100 | > 100 | > 100 | 
16 | CC12CC3CC(C)(C1)CC(NC(=O)CC(=O)NCCCN)(C3)C2 [(33), N-(3,5-dimethyladamantan-1-yl)-N′-(3-aminopropyl)malonic acid diamide] | > 10 | > 10 | 10 to 100 | 
17 | CN(C)CCCNC(=O)CC(=O)OC12CC3CC(CC(C3)C1)C2 [(27), malonic acid adamantan-1-yl ester N-(3-dimethylaminopropyl)amide] | > 10 | > 10 | 10 to 100 | 
